Results published in PMC8808171, “Nonselective TRPC channel inhibition and suppression of aminoglycoside-induced premature termination codon readthrough by the small molecule AC1903” (The Journal of Biological Chemistry, 2022).

What was measured:
[1] = tested on: TC-71 cells (TP53 R213X); test: G418-induced PTC readthrough (full-length p53, capillary electrophoresis Western) in TC-71 cells; format: cell-based; conditions: without G418
Description: (§1) Variation in PTC readthrough response has been reported among individuals or cell lines with different nonsense mutations. Although this in part highlights the importance of the stop codon and its surrounding sequence as well as the physical location of the nonsense mutation in the mRNA sequence, understanding the contribution of other underlying genetic variations becomes more complicated. To rule out the effect of the sequence and position of nonsense mutations on response variation to potential PTC readthrough modulators, we studied two cancer cell lines, DMS-114 and TC-71, with identical homozygous nonsense mutation R213X in their TP53 gene. […] To find out whether the reduced response to G418 in TC-71 cells was associated with lower intracellular levels of G418, we measured concentrations of G418 in both cell lines at 0, 8 and 24 h post exposure to G418 (100 μg/ml).
Figure 1 Effect of TRPC inhibitors on G418 induced PTC readthrough. A, DMS-114 and TC-71 cell lines with homozygous TP53 nonsense mutation (R213X) were exposed to indicated concentrations of G418 for 24 h and p53 levels (full-length, FL-p53; truncated, TR-p53) were measured. B, 100 μg/ml G418 was added to DMS-114 and TC-71 cells and its total intracellular levels were measured at indicated time points (n = 5; data normalized to the highest response in each experiment; bars represent mean ± SD). […]

[2] = tested on: JEB01 keratinocytes; test: Measurement of intracellular G418 (gentamicin ELISA) in JEB01 keratinocytes; format: cell-based, human; conditions: 150 μM AC1903 (Fig. 2F)
Method: Figure 2 Effect of AC1903 on PTC readthrough and G418 trafficking.A and B, DMS-114 (A) or TC-71 (B) cells were pretreated with indicated concentrations of AC1903 for 3 h followed by exposure to 400 μg/ml G418. After 3 h medium was replenished and at 24 h cell lysates were prepared and p53 levels were measured. C and E, DMS-114 (C) or JEB01 (E) cells were either left untreated or pretreated with 150 μM AC1903 for 3 h followed by exposure to indicated concentrations of G418 for another 3 h. At 24 h cell lysates were prepared and p53 (C) or Collagen XVII (E) levels were measured. In panels A–C, protein levels were measured by automated capillary electrophoresis Western analysis (using vinculin as loading control). In panel E, protein levels were measured by Western blot (using beta-actin as loading control). […] D, total intracellular levels of G418 were measured in the same lysates as in (C) (n = 5; data normalized to the highest response in each experiment; bars represent mean ± SD). F, total intracellular levels of G418 were measured in the same lysates as in (E) (n = 2; data normalized to the highest response in each experiment; bars represent mean ± SD). ∗ indicates statistically significant difference between samples according to one-way ANOVA (p < 0.05). […]

[3] = tested on: DMS-114 cells (TP53 R213X); test: G418-induced PTC readthrough (full-length p53, capillary electrophoresis Western) in DMS-114 cells; format: cell-based, human; conditions: for reduction of PTC readthrough compared with G418 alone: then 400 μg/ml G418 (Fig. 2A)
Description: as §1
Figure 1 Effect of TRPC inhibitors on G418 induced PTC readthrough. A, DMS-114 and TC-71 cell lines with homozygous TP53 nonsense mutation (R213X) were exposed to indicated concentrations of G418 for 24 h and p53 levels (full-length, FL-p53; truncated, TR-p53) were measured. B, 100 μg/ml G418 was added to DMS-114 and TC-71 cells and its total intracellular levels were measured at indicated time points (n = 5; data normalized to the highest response in each experiment; bars represent mean ± SD). C, DMS-114 cells were preincubated with indicated concentrations of TRPC inhibitors GFB-8438 (GFB), SAR7334 (SAR), SKF96365 (SKF), 2-APB, or AC1903 for 3 h followed by exposure to 400 μg/ml G418 for another 3 h. At 24 h cell lysates were prepared and p53 levels were measured. In panels A and C, protein levels were measured by automated capillary electrophoresis Western analysis (using vinculin and GAPDH as loading controls). Samples of cell lysates containing equal amounts of total protein were loaded in all capillaries and FL-p53 levels were expressed relative to the amount of FL-p53 in untreated cells. ∗ indicates statistically significant difference between samples according to two-way ANOVA (p < 0.05). PTC, premature termination codon; TRPC, transient receptor potential canonical.
To further investigate AC1903 as a suppressor of G418-induced PTC readthrough, we exposed DMS-114 and TC-71 cells to various concentrations of AC1903 for 3 h prior to exposure to 400 μg/ml G418 for another 3 h, followed by media replacement and incubation for another 18 h.
Figure 2 Effect of AC1903 on PTC readthrough and G418 trafficking.A and B, DMS-114 (A) or TC-71 (B) cells were pretreated with indicated concentrations of AC1903 for 3 h followed by exposure to 400 μg/ml G418. After 3 h medium was replenished and at 24 h cell lysates were prepared and p53 levels were measured. C and E, DMS-114 (C) or JEB01 (E) cells were either left untreated or pretreated with 150 μM AC1903 for 3 h followed by exposure to indicated concentrations of G418 for another 3 h. At 24 h cell lysates were prepared and p53 (C) or Collagen XVII (E) levels were measured. In panels A–C, protein levels were measured by automated capillary electrophoresis Western analysis (using vinculin as loading control). In panel E, protein levels were measured by Western blot (using beta-actin as loading control). Samples of cell lysates containing equal amounts of total protein were loaded in all capillaries and FL-p53 or Collagen XVII levels were expressed relative to their respective amounts in untreated cells. D, total intracellular levels of G418 were measured in the same lysates as in (C) (n = 5; data normalized to the highest response in each experiment; bars represent mean ± SD). F, total intracellular levels of G418 were measured in the same lysates as in (E) (n = 2; data normalized to the highest response in each experiment; bars represent mean ± SD). ∗ indicates statistically significant difference between samples according to one-way ANOVA (p < 0.05). PTC, premature termination codon. […]

c1ccc(Cn2c(NCc3ccco3)nc3ccccc32)cc1 [AC1903]
effect on PTC readthrough of AC1903 alone [1]: did not affect PTC readthrough
intracellular G418 levels in cells exposed to AC1903 [2]: significantly declined
effect on G418-induced PTC readthrough ([3]; 150 μM AC1903 3 h, then 400 μg/ml G418 (Fig. S12)): strongly reduced
reduction of PTC readthrough compared with G418 alone ([3]; AC1903 50 μM 3 h): 20%
suppression of G418-induced PTC readthrough ([3]; AC1903 50 μM, 400 μg/ml G418 (Fig. 1C)): ~27%
reduction of PTC readthrough compared with G418 alone ([3]; AC1903 150 μM 3 h): 74%
decrease in full-length p53 ([3]; pretreatment 150 μM AC1903, increasing concentrations of G418 (Fig. 2C)): ~70%
effect on PTC readthrough of AC1903 alone ([3]; without G418): did not affect PTC readthrough
